In ChEMBL document CHEMBL2046269, “Phthalide and isocoumarin derivatives produced by an Acremonium sp. isolated from a mangrove Rhizophora apiculata” (2012):
In brackets after ≈: the same amount, converted by molar mass.

Tested on: Candida albicans
Experiment: Antifungal activity against Candida albicans NCPF 3153 after 15 hrs by colorimetric broth microdilution test
Assay type: functional
Details: NCPF 3153, 15 h

## C[C@H]1CCC/C=C/[C@@H]2C[C@H](O)C[C@H]2[C@H](O)/C=C/C(=O)O1 [BREFELDIN A]
  MIC: 32 µg/mL (≈ 114 µM)
